Experiments:
monoclonal antibody Py-1 = assay: Competition ELISA (cELISA), monoclonal antibody Py-1, 3-pba-BSA coated plates; format: binding, mouse; conditions: for Average 50% inhibition values (I50), Py-1: Table I, averages from at least 12 assays; for Average 50% inhibition values (I50), Py-1 / I50 values observed for competitors (FIG. 4): Py-1
Procedure: (§1) The binding specificities of antibodies to standards and assay samples were evaluated by competition ELISA assays. In a competition assay system, an antigen, which is a large molecule with protein or carbohydrate moieties which can precisely bind with steric interaction with the conformation of the antibodies is fixed to the reaction surface of a test plate, and antigen-specific antibody is added along with an aliquot of sample extract or standard test solution. The free-floating antibody partitions between the fixed antigen bound to the test reaction surface and the antigen of the added sample or standard which is free-floating in the solution. After a reaction period, the free-floating antigen-antibody complex is washed away. The plate is rewashed and incubated with an enzyme-tagged indicator molecule which will immunospecifically bind to proteins of the animal species which was the source of the pyrethroid-specific antibodies. Substrate and buffer are provided for the reaction of the enzyme-tagged indicator molecule. The optical signal from the enzyme substrate reaction indicates the amount of pyrethroid-specific antibody which remains bound to the immobilized antigen on the reaction plate. The utility of such a reaction system is dependent on the surface binding of the antigenic hapten-protein complex. The sensitivity of such a binding system can be amplified by coupling the enzyme reaction endpoint to a biotin-avidin complex. Optimal enzyme sensitivity occurs when a minimal amount of coating antigen (3-pba-BSA) is used.
(§2) A competition enzyme-linked immunosorbent assay (c-ELISA) was developed to quantify permethrin standards in solution and to assess the specificity of the antibodies for various natural and synthetic pyrethroids. […] The 3-pba conjugate could be prepared by using EDC (1-ethyl-3-(3-dimethylaminopropyl)carbodiimide) as a cross-linking agent. The 3-pba conjugate was used as the coating agent for all subsequent experiments. Microtiter plates were coated with 0.5 μg/well 3-pba-BSA and blocked with ovalbumin.
(§3) In the competition ELISA, the competitors were dissolved in acetonitrile and were added to phosphate-buffered saline(PBS)-Tween buffer such that the resulting solution was 6% acetonitrile. Competitor was added so that each well contained 100 μl of competitor in a 6% acetonitrile-PBS solution. An equal volume of PBS containing monoclonal antibody was added such that there was a final concentration assay buffer containing antibody and competitor. These antibodies can tolerate up to 5% acetonitrile without loss of activity. The plates were incubated for one hour at 37° C. and the endpoint assessed by observation of the color change of p-nitrophenyl phosphate substrate actuated by alkaline phosphatase conjugated to goat anti-mouse antibody.
(§4) Because the sensitivity of c-ELISA's can be influenced by both the amount of specific anti-hapten antibody used and the amount of immobilized antigen, both of these parameters were optimized. In the preferred method, the amount of antigen used to coat the microtiter plates was varied from 10-0.5 μg/well, with 0.5 μg/well being more preferred. The method of application of the antigen to the plate was important to the assay. Antigen could be absorbed onto the wells overnight at 4° C. or antigen could be allowed to evaporate from the antigen solution onto the wells at 37° C. Using Py-1 antibody and permethrin as competitor, maximal sensitivity was observed when the antigen was allowed to evaporate onto the wells. In the preferred method microliter plates were prepared by evaporation of 100 μl of a 5 μg/mL solution of coating antigen (3-pba-BSA) at 37° C..
The antibody Py-1 was titrated against immobilized antigen (0.5 μg […]/well) in a direct binding ELISA. At a Py-1 antibody concentration of 0.02 μg/well, the level used in subsequent cELISA's, 40% of the plateau activity was reached. […]

monoclonal antibody Py-4 = assay: Competition ELISA (cELISA), monoclonal antibody Py-4, 3-pba-BSA coated plates; format: binding, mouse; conditions: for Average 50% inhibition values (I50), Py-4: Table I, averages from at least 12 assays
Procedure: as §1, §2, §3
as §4, with “C.. […]” for “C..”
(§5) The competition ELISA data was normalized using 100% activity as the optical density in wells in which antibody bound to the solid phase antigen (3-pba-BSA) in the absence of any competitor. The test wells, each containing different amounts of competitor, were normalized to the 100% activity wells. […]

monoclonal antibody Py-3 = assay: Competition ELISA (cELISA), monoclonal antibody Py-3, 3-pba-BSA coated plates; format: binding, mouse; conditions: for Average 50% inhibition values (I50), Py-3: Table I, averages from at least 12 assays
Procedure: as §1, §2, §3
as §4, with “C.. […]” for “C..”
as §5

[1] = cited from earlier work; for mammalian toxicity: background; for oncogenicity listing by U.S. Environmental Protection Agency: Regulating Pesticides in Food: The Delaney Paradox, 1987
[2] = background; cited from earlier work
[3] = test system: Antibodies selected for their binding to the analog hapten of permethrin; assay: Antibody response to hapten and related pyrethroids; parameters: species or system mouse
Text: Synthetic pyrethroids are small organic molecules, and in an effort to render such a molecule immunogenic, it was necessary to conjugate such molecules to carrier protein. Various modifications of synthetic pyrethroids can be made to achieve this purpose.

Row | Structure (SMILES) | Average 50% inhibition values (I50), Py-1 (monoclonal antibody Py-1) [nanograms] | Average 50% inhibition values (I50), Py-4 (monoclonal antibody Py-4) [nanograms] | Average 50% inhibition values (I50), Py-3 (monoclonal antibody Py-3) [nanograms] | I50 values observed for competitors (FIG. 4) (monoclonal antibody Py-1) [ng/well] | also measured
1 | CC1(C)C(C=C(Cl)Cl)C1C(=O)OCc1cccc(Oc2ccccc2)c1 [Permethrin (trans isomers)] | 1.7 |  |  |  | 
2 | O=C(O)c1cccc(Oc2ccccc2)c1 [3-Phenoxybenzoic acid] | 200 | 330 | 140 |  | 
3 | CC(C)[C@H](C(=O)OC(C#N)c1cccc(Oc2ccccc2)c1)c1ccc(OC(F)F)cc1 (stereo partly drawn) [Flucythranate, cyano(3-phenoxyphenyl)methyl(S)-4-(difluoromethoxy)-alpha-(1-methylethyl) benzeneacetate] | 120 | 275 | 45 |  | 
4 | CC(C)=CC1C(C(=O)OCN2C(=O)C3=C(CCCC3)C2=O)C1(C)C (mixture of isomers) [Tetramethrin, N-(3,4,5,6-tetrahydrophthalimino) methyl (dl)-cis,trans-chrysanthemate] | > 600 |  |  |  | 
5 | CC1(C)[C@H](C(=O)O[C@H](C#N)c2cccc(Oc3ccccc3)c2)[C@@H]1C=C(Br)Br (racemic) [Deltamethrin, -/+alpha-cyano-3-phenoxybenzyl-(+/-)-cis,trans-3-(2,2-dibromovinyl)-2,2-dimethylcyclopropanecarboxylate] | 15 | 10 | 10 | 15 | mammalian toxicity [1]: low mammalian toxicity; stability [2]: more stable
6 | CC1(C)C(C(=O)OC(C#N)c2cccc(Oc3ccccc3)c2)C1(C)C (stereo not drawn) [Fenpropathrin, alpha-cyano-3-phenoxybenzyl-2,2,3,3-tetramethylcyclopropanecarboxylate] | 17 | 25 | 10 |  | 
7 | CC1(C)C(C=C(Cl)Cl)C1C(=O)OCc1cccc(Oc2ccccc2)c1 (mixture of isomers) [Permethrin, 3-phenoxybenzyl (lRS),cis,trans-3(2,2-dichlorovinyl)-2,2-dimethylcyclopropanecarboxylate] |  | 12 | 1.7 | 1.7 | concentration which caused a 50% inhibition (I50) of antibody activity, Py-4 (monoclonal antibody Py-4; FIG. 3, in words): low nanogram range; 50% inhibition value, Py-4 (monoclonal antibody Py-4; Table 1, ng of competitor): 12 ng; oncogenicity listing by U.S. Environmental Protection Agency [1]: potentially oncogenic; mammalian toxicity [1]: low mammalian toxicity; concentration which caused a 50% inhibition (I50) of antibody activity, Py-1 (monoclonal antibody Py-1; FIG. 3, in words): low nanogram range; 50% inhibition value, Py-1 (monoclonal antibody Py-1; Table 1, ng of competitor): 1.5 ng; Average 50% inhibition values (I50), Py-1 (monoclonal antibody Py-1; listed as Permethrin (mixed isomers)): 1.5 nanograms; responsiveness of antibodies [3]: similarly responsive; stability [2]: more stable; concentration which caused a 50% inhibition (I50) of antibody activity, Py-3 (monoclonal antibody Py-3; FIG. 3, in words): low nanogram range; 50% inhibition value, Py-3 (monoclonal antibody Py-3; Table 1, ng of competitor): 1.7 ng
8 | CC1(C)C(C(=O)O)C1C(=O)OCc1cccc(Oc2ccccc2)c1 (stereo not shown) [Hapten] | 2 | 0.6 | 0.3 |  | responsiveness of antibodies [3]: similarly responsive
9 | CC(C)=CC1C(C(=O)O)C1(C)C (stereo not shown) [Chrysanthemic acid] | > 600 |  |  |  | 
10 | CC(C)=CC1C(C(=O)OCc2cccc(Oc3ccccc3)c2)C1(C)C (mixture of isomers) [Phenothrin, 3-phenoxybenzyl(lRS)cis,transchrysanthemate] | 1.5 | 6 | 0.5 | 1.5 | responsiveness of antibodies [3]: similarly responsive
11 | C=CCC1=C(C)C(OC(=O)[C@@H]2[C@@H](C=C(C)C)C2(C)C)CC1=O (stereo partly shown) [bioallethrin] |  |  |  |  | stability in the air and water [2]: unstable character
12 | CC(C)C(C(=O)OC(C#N)c1cccc(Oc2ccccc2)c1)c1ccc(Cl)cc1 (stereo not shown) [Fenvalerate, cyano(3-phenoxyphenyl)methyl 4-chloroalpha-(1-methylethyl)benzeneacetate] | 350 | 4000 | 160 | 350 | 
13 | CC1(C)C(C=C(Cl)Cl)C1C(=O)OC(C#N)c1cccc(Oc2ccccc2)c1 (mixture of isomers) [Cypermethrin, alpha-cyano-3-phenoxybenzyl cis, trans-3-(2,2-dichlorovinyl)-2,2-dimethylcyclopropanecarboxylate] | 30 | 22 | 20 | 30 | oncogenicity listing by U.S. Environmental Protection Agency [1]: potentially oncogenic; mammalian toxicity [1]: low mammalian toxicity; stability [2]: more stable
14 | O=Cc1cccc(Oc2ccccc2)c1 [3-Phenoxybenzaldehyde] | 22 |  |  |  | 
15 | C=CCC1=C(C)C(OC(=O)C2C(C=C(C)C)C2(C)C)CC1=O (stereo not shown) [allethrin] |  |  |  |  | stability in the air and water [2]: unstable character

Source: patent US5108900A, “Monoclonal antibodies to synthetic pyrethroids and method for detecting the same” (Regents of the University of California, priority 1989, dated 1992)
